# Results: patent US5045549A, “Substituted 4-pyridone 3-carboxylic acid derivatives, method for their production and their pharmaceutical compositions” (priority 1986, dated 1991)
# Like-named read-outs stand apart in the source and are kept apart here.
# How the values were obtained:
# Test in all cases: MIC agar dilution assay (Table III)
# Type in all cases: cell-based
# [1] = system: CITRO DIV; conditions: 18 CITRO DIV K 82 24; 18 Hrs, 35 Celsius; read-out: MINIMAL INHIBITORY CONC.
# Description: (§1) The results are summarized in Table III. |TEST: 406 METHOD: […] |MEDIUM: […] |INCUBATION: 18 Hrs. 35 Celsius | Aerobic: T
# [2] = system: ESCH COLI; conditions: 18 h, read-out: MINIMAL INHIBITORY CONC.
# Description: as §1
# [3] = system: PROV STUA; conditions: 17 PROV STUA CMC 83 3; 18 Hrs, 35 Celsius; read-out: MINIMAL INHIBITORY CONC.
# Description: as §1
# [4] = system: PSEU AERUG; conditions: 18 h, read-out: MINIMAL INHIBITORY CONC.
# Description: as §1
# [5] = system: STREP FAEC; conditions: 18 h, read-out: MINIMAL INHIBITORY CONC.
# Description: as §1
# [6] = system: ENTERO CLO; conditions: 18 h, read-out: MINIMAL INHIBITORY CONC.
# Description: (§2) TEST: 406 METHOD: AGAR DIL
# (§3) MEDIUM: MUEL-HIN INOCULUM: 1.OE+04 - 5.OE+04
# (§4) INCUBATION: 18 Hrs. 35 Celsius
# [7] = system: KLEB PNEUM; conditions: 18 h, read-out: MINIMAL INHIBITORY CONC.
# Description: as §2, §3, §4
# [8] = system: MORG MORG; conditions: 18 h, read-out: MINIMAL INHIBITORY CONC.
# Description: as §2, §3, §4
# [9] = system: PROT RETT; conditions: 16 PROT RETT IO 83 21; 18 Hrs, 35 Celsius; read-out: MINIMAL INHIBITORY CONC.
# Description: as §2, §3, §4
# [10] = system: SERRAT MARC; conditions: 18 h, read-out: MINIMAL INHIBITORY CONC.
# Description: as §2, §3, §4
# [11] = system: STAPH AUR; conditions: 18 h, read-out: MINIMAL INHIBITORY CONC.
# Description: as §2, §3, §4
# [12] = 1 ESCH COLI MOR 84 20, 35 Celsius
# [13] = 2 ESCH COLI VGH 84 19, 35 Celsius
# [14] = 3 ESCH COLI CMC 84 50, 35 Celsius
# [15] = 28 ESCH COLI ATCC 25922, 35 Celsius
# [16] = 19 PSEU AERUG K 84 16, 35 Celsius
# [17] = 20 PSEU AERUG VGH 84 3, 35 Celsius
# [18] = 21 PSEU AERUG CMC 83 20, 35 Celsius
# [19] = 25 STREP FAEC UCI 85 30, 35 Celsius
# [20] = 26 STREP FAEC VGH 84 69, 35 Celsius
# [21] = 27 STREP FAEC CMC 83 120, 35 Celsius
# [22] = 7 ENTERO CLO VGH 84 39, 35 Celsius
# [23] = 8 ENTERO CLO K 84 10, 35 Celsius
# [24] = 9 ENTERO CLO MOR 84 30, 35 Celsius
# [25] = 4 KLEB PNEUM CMC 84 31, 35 Celsius
# [26] = 5 KLEB PNEUM MOR 84 24, 35 Celsius
# [27] = 6 KLEB PNEUM IO 83 5, 35 Celsius
# [28] = 13 MORG MORG VGH 84 12, 35 Celsius
# [29] = 14 MORG MORG CMC 84 38, 35 Celsius
# [30] = 15 MORG MORG MOR 84 45, 35 Celsius
# [31] = 10 SERRAT MARC MOR 84 41, 35 Celsius
# [32] = 11 SERRAT MARC CMC 83 74, 35 Celsius
# [33] = 12 SERRAT MARC IO 83 63, 35 Celsius
# [34] = 22 STAPH AUR VGH 84 47, 35 Celsius
# [35] = 23 STAPH AUR K 82 26, 35 Celsius
# [36] = 24 STAPH AUR CMC 83 131, 35 Celsius
# [37] = 29 STAPH AUR ATCC 29213, 35 Celsius
MIC [1],"MIC [2, 12]","MIC [2, 13]","MIC [2, 14]","MIC [2, 15]",MIC [3],"MIC [4, 16]","MIC [4, 17]","MIC [4, 18]","MIC [5, 19]","MIC [5, 20]","MIC [5, 21]","MIC [6, 22]","MIC [6, 23]","MIC [6, 24]","MIC [7, 25]","MIC [7, 26]","MIC [7, 27]","MIC [8, 28]","MIC [8, 29]",SMILES,other results
0.03 µg/mL,0.015 µg/mL,0.015 µg/mL,0.06 µg/mL,0.03 µg/mL,4 µg/mL,1 µg/mL,4 µg/mL,0.5 µg/mL,0.5 µg/mL,0.5 µg/mL,0.5 µg/mL,0.06 µg/mL,0.03 µg/mL,0.06 µg/mL,0.06 µg/mL,0.06 µg/mL,0.12 µg/mL,0.25 µg/mL,0.25 µg/mL,"CN1CC2CC1CN2c1cc2c(cc1F)c(=O)c(C(=O)O)cn2-c1ccc(F)cc1F (stereo not shown) [Example 9, 6-Fluoro-1-(2,4-difluorophenyl)-1,4-dihydro7-(5-methyl-2,5-diazabicyclo(2.2.1)hept-2-yl)-4-oxoquinoline-3-carboxylic acid]","MIC [8, 30]: 0.12 µg/mL; MIC [9]: 0.06 µg/mL; MIC [10, 31]: 0.12 µg/mL; MIC [10, 32]: 4 µg/mL; MIC [10, 33]: 0.5 µg/mL; MIC [11, 34]: 0.03 µg/mL; MIC [11, 35]: 0.015 µg/mL; MIC [11, 36]: 0.5 µg/mL; MIC [11, 37]: 0.03 µg/mL"
0.008 µg/mL,0.008 µg/mL,0.008 µg/mL,0.03 µg/mL,0.008 µg/mL,2 µg/mL,0.5 µg/mL,1 µg/mL,0.25 µg/mL,0.5 µg/mL,0.5 µg/mL,0.5 µg/mL,0.03 µg/mL,0.015 µg/mL,0.03 µg/mL,0.03 µg/mL,0.06 µg/mL,0.06 µg/mL,0.06 µg/mL,0.12 µg/mL,"O=C(O)c1cn(-c2ccc(F)cc2F)c2cc(N3CC4CC3CN4)c(F)cc2c1=O (stereo not shown) [Example 11, 7-(2,5-diazabicyclo(2.2.1)hept-2-yl)-6-fluoro-1-(2,4-difluorophenyl)-1,4-dihydro-4-oxoquinoline3-carboxylic acid]","MIC [8, 30]: 0.03 µg/mL; MIC [9]: 0.03 µg/mL; MIC [10, 31]: 0.06 µg/mL; MIC [10, 32]: 4 µg/mL; MIC [10, 33]: 0.25 µg/mL; MIC [11, 34]: 0.25 µg/mL; MIC [11, 35]: 0.12 µg/mL; MIC [11, 36]: 0.25 µg/mL; MIC [11, 37]: 0.25 µg/mL"
